# ChEMBL document CHEMBL5385942, “C3-Symmetric ligands in drug design: An overview of the challenges and opportunities ahead” (Bioorg Med Chem Lett, 2024)
# Several values for one entry are separate records, joined by “and”; a condition that tells them apart may be missing. Equal values may be shown once. Activity calls are given as the source filed them. The calls are words filed in the database; no cut-off is given here.
# Tests used:
# Quadruplex DNA [1] = test: Stabilization of human G4 quadruplex telomeric22 DNA assessed as change in temperature at 2 uM by FRET assay; type: nucleic-acid assay
# dsDNA = test: Stabilization of human duplex DNA assessed as change in temperature at 1 uM by FRET assay; type: nucleic-acid assay
# Quadruplex DNA [2] = test: Stabilization of human G4 quadruplex telomeric22 DNA assessed as change in temperature at 1 uM by FRET assay; type: nucleic-acid assay
# Human alphaherpesvirus 1 = test: Antiviral activity against HSV-1 infected in African green monkey Vero cells by plaque reduction assay; type: functional, organism-based; conditions: Human alphaherpesvirus 1, Vero
# Quadruplex DNA [3] = test: Stabilization of human G4 quadruplex telomeric22 DNA assessed as change in temperature at 5 uM by FRET assay; type: nucleic-acid assay
# Quadruplex DNA [4] = test: Stabilization of human G4 quadruplex telomeric22 DNA assessed as change in temperature at 10 uM by FRET assay; type: nucleic-acid assay
# Micrococcus luteus = test: Antimicrobial activity against Micrococcus luteus ATCC 9341 assessed as zone of inhibition by […]; type: functional
# Bacillus subtilis = test: Antimicrobial activity against Bacillus subtilis MTCC 441 assessed as zone of inhibition by […]; type: functional
# Staphylococcus aureus = test: Antimicrobial activity against Staphylococcus aureus MTCC 96 assessed as zone of inhibition by […]; type: functional
compound,measurement,setting,value
CCNCCCC(=O)Nc1ccc(-c2cn(Cc3cc(Cn4cc(-c5ccc(NC(=O)CCCNCC)cc5)nn4)cc(Cn4cc(-c5ccc(NC(=O)CCCNCC)cc5)nn4)c3)nn2)cc1,ΔTm,Quadruplex DNA [1],2 °C
same,ΔTm,dsDNA,0 °C
same,ΔTm,Quadruplex DNA [2],1 °C
CC(C)(C)Oc1nc(N)nc(OC(C)(C)C)n1,EC50,Human alphaherpesvirus 1,> 100 µM
CCCOCCNCCC(=O)Nc1ccc(-c2cn(Cc3cc(Cn4cc(-c5ccc(NC(=O)CCNCCOCCC)cc5)nn4)cc(Cn4cc(-c5ccc(NC(=O)CCNCCOCCC)cc5)nn4)c3)nn2)cc1,ΔTm,Quadruplex DNA [1],0 °C
same,ΔTm,dsDNA,0 °C
same,ΔTm,Quadruplex DNA [2],0 °C
c1ccc2c(c1)[nH]c1ccc(-c3cc(-c4ccc5[nH]c6ccccc6c5c4)cc(-c4ccc5[nH]c6ccccc6c5c4)c3)cc12,ΔTm,Quadruplex DNA [3],4 °C
same,ΔTm,Quadruplex DNA [4],2.6 °C
same,ΔTm,Quadruplex DNA [2],1.1 °C
O=C(/C=C/c1cccc([N+](=O)[O-])c1)c1ccc(Oc2nc(Oc3ccc(C(=O)/C=C/c4cccc([N+](=O)[O-])c4)cc3)nc(Oc3ccc(C(=O)/C=C/c4cccc([N+](=O)[O-])c4)cc3)n2)cc1,inhibition zone (IZ),Micrococcus luteus,5 mm
same,inhibition zone (IZ),Bacillus subtilis,7 mm
CCN(CC)CCn1c2ccccc2c2cc(-c3cc(-c4ccc5c(c4)c4ccccc4n5CCN(CC)CC)cc(-c4ccc5c(c4)c4ccccc4n5CCN(CC)CC)c3)ccc21,ΔTm,Quadruplex DNA [3],4.9 °C
same,ΔTm,Quadruplex DNA [4],3.3 °C
same,ΔTm,Quadruplex DNA [2],2.8 °C
Nc1nc(OC(C(F)(F)F)C(F)(F)F)nc(OC(C(F)(F)F)C(F)(F)F)n1,EC50,Human alphaherpesvirus 1,> 100 µM
CNCCC(=O)Nc1ccc(-c2cn(Cc3cc(Cn4cc(-c5ccc(NC(=O)CCNC)cc5)nn4)cc(Cn4cc(-c5ccc(NC(=O)CCNC)cc5)nn4)c3)nn2)cc1,ΔTm,dsDNA,0 °C
Cc1ccc(C2CC(c3ccc(Oc4nc(Oc5ccc(C6=NN(C(N)=S)C(c7ccc(C)cc7)C6)cc5)nc(Oc5ccc(C6=NN(C(N)=S)C(c7ccc(C)cc7)C6)cc5)n4)cc3)=NN2C(N)=S)cc1 (stereo not drawn),inhibition zone (IZ),Micrococcus luteus,20 mm
same,inhibition zone (IZ),Bacillus subtilis,9 mm
same,inhibition zone (IZ),Staphylococcus aureus,11 mm
c1ccc2c(c1)c1cc(-c3cc(-c4ccc5c(c4)c4ccccc4n5CCCN4CCCCC4)cc(-c4ccc5c(c4)c4ccccc4n5CCCN4CCCCC4)c3)ccc1n2CCCN1CCCCC1,ΔTm,Quadruplex DNA [3],17 °C
same,ΔTm,Quadruplex DNA [4],19.9 °C
same,ΔTm,Quadruplex DNA [2],6 °C
CCCCCCNCCC(=O)Nc1ccc(-c2cn(Cc3cc(Cn4cc(-c5ccc(NC(=O)CCNCCCCCC)cc5)nn4)cc(Cn4cc(-c5ccc(NC(=O)CCNCCCCCC)cc5)nn4)c3)nn2)cc1,ΔTm,Quadruplex DNA [1],11 °C
same,ΔTm,dsDNA,0 °C
same,ΔTm,Quadruplex DNA [2],4 °C
CCCCCCNCCCC(=O)Nc1ccc(-c2cn(Cc3cc(Cn4cc(-c5ccc(NC(=O)CCCNCCCCCC)cc5)nn4)cc(Cn4cc(-c5ccc(NC(=O)CCCNCCCCCC)cc5)nn4)c3)nn2)cc1,ΔTm,Quadruplex DNA [1],1 °C
same,ΔTm,dsDNA,0 °C
same,ΔTm,Quadruplex DNA [2],1 °C
c1ccc2c(c1)c1cc(-c3cc(-c4ccc5c(c4)c4ccccc4n5CCCN4CCCC4)cc(-c4ccc5c(c4)c4ccccc4n5CCCN4CCCC4)c3)ccc1n2CCCN1CCCC1,ΔTm,Quadruplex DNA [3],14.3 °C
same,ΔTm,Quadruplex DNA [4],17.5 °C
same,ΔTm,Quadruplex DNA [2],2.6 °C
O=C(/C=C/c1ccc(Cl)cc1Cl)c1ccc(Oc2nc(Oc3ccc(C(=O)/C=C/c4ccc(Cl)cc4Cl)cc3)nc(Oc3ccc(C(=O)/C=C/c4ccc(Cl)cc4Cl)cc3)n2)cc1,inhibition zone (IZ),Micrococcus luteus,7 mm and 10 mm
same,inhibition zone (IZ),Bacillus subtilis,7 mm and 8 mm
same,inhibition zone (IZ),Staphylococcus aureus,10 mm and 7 mm
CCCCCNCCC(=O)Nc1ccc(-c2cn(Cc3cc(Cn4cc(-c5ccc(NC(=O)CCNCCCCC)cc5)nn4)cc(Cn4cc(-c5ccc(NC(=O)CCNCCCCC)cc5)nn4)c3)nn2)cc1,ΔTm,Quadruplex DNA [1],7 °C
same,ΔTm,dsDNA,0 °C
same,ΔTm,Quadruplex DNA [2],1 °C
CC(C)CNc1nc(NCC(C)C)nc(NCC(C)C)n1,EC50,Human alphaherpesvirus 1,29.8 µM
c1cc2c(cc1CNc1nc(NCc3ccc4c(c3)OCO4)nc(NCc3ccc4c(c3)OCO4)n1)OCO2,EC50,Human alphaherpesvirus 1,5.4 µM
CNCCCC(=O)Nc1ccc(-c2cn(Cc3cc(Cn4cc(-c5ccc(NC(=O)CCCNC)cc5)nn4)cc(Cn4cc(-c5ccc(NC(=O)CCCNC)cc5)nn4)c3)nn2)cc1,ΔTm,Quadruplex DNA [1],7 °C
same,ΔTm,dsDNA,0 °C
same,ΔTm,Quadruplex DNA [2],2 °C
O=C(/C=C/c1ccc(Cl)cc1)c1ccc(Oc2nc(Oc3ccc(C(=O)/C=C/c4ccc(Cl)cc4)cc3)nc(Oc3ccc(C(=O)/C=C/c4ccc(Cl)cc4)cc3)n2)cc1,inhibition zone (IZ),Micrococcus luteus,8 mm
same,inhibition zone (IZ),Bacillus subtilis,7 mm
c1ccc(CNc2nc(NCc3ccccc3)nc(NCc3ccccc3)n2)cc1,EC50,Human alphaherpesvirus 1,13.2 µM
COc1ccc(CNc2nc(NCc3ccc(OC)c(OC)c3)nc(NCc3ccc(OC)c(OC)c3)n2)cc1OC,EC50,Human alphaherpesvirus 1,0.98 µM
CCN(CC)CCCn1c2ccccc2c2cc(-c3cc(-c4ccc5c(c4)c4ccccc4n5CCCN(CC)CC)cc(-c4ccc5c(c4)c4ccccc4n5CCCN(CC)CC)c3)ccc21,ΔTm,Quadruplex DNA [3],8.4 °C
same,ΔTm,Quadruplex DNA [4],11.5 °C
same,ΔTm,Quadruplex DNA [2],5.1 °C
c1ccc2c(c1)c1cc(-c3cc(-c4ccc5c(c4)c4ccccc4n5CCN4CCCCC4)cc(-c4ccc5c(c4)c4ccccc4n5CCN4CCCCC4)c3)ccc1n2CCN1CCCCC1,ΔTm,Quadruplex DNA [3],2.3 °C
same,ΔTm,Quadruplex DNA [4],4.9 °C
same,Activity,Quadruplex DNA [2],inactive
c1ccc2c(c1)c1cc(-c3cc(-c4ccc5c(c4)c4ccccc4n5CCN4CCOCC4)cc(-c4ccc5c(c4)c4ccccc4n5CCN4CCOCC4)c3)ccc1n2CCN1CCOCC1,Activity,Quadruplex DNA [3],inactive
same,Activity,Quadruplex DNA [4],inactive
same,Activity,Quadruplex DNA [2],inactive
CCCCCNCC(=O)Nc1ccc(-c2cn(Cc3cc(Cn4cc(-c5ccc(NC(=O)CNCCCCC)cc5)nn4)cc(Cn4cc(-c5ccc(NC(=O)CNCCCCC)cc5)nn4)c3)nn2)cc1,ΔTm,Quadruplex DNA [1],0 °C
same,ΔTm,dsDNA,0 °C
same,ΔTm,Quadruplex DNA [2],0 °C
CCCOCCNCC(=O)Nc1ccc(-c2cn(Cc3cc(Cn4cc(-c5ccc(NC(=O)CNCCOCCC)cc5)nn4)cc(Cn4cc(-c5ccc(NC(=O)CNCCOCCC)cc5)nn4)c3)nn2)cc1,ΔTm,Quadruplex DNA [1],0 °C
same,ΔTm,dsDNA,0 °C
same,ΔTm,Quadruplex DNA [2],0 °C
Cc1ccc(CNc2nc(NCc3ccc(C)cc3)nc(NCc3ccc(C)cc3)n2)cc1,EC50,Human alphaherpesvirus 1,38.7 µM
FC(F)CNc1nc(NCC(F)F)nc(NCC(F)F)n1,EC50,Human alphaherpesvirus 1,24.4 µM
NC(=S)N1N=C(c2ccc(Oc3nc(Oc4ccc(C5=NN(C(N)=S)C(c6ccc([N+](=O)[O-])cc6)C5)cc4)nc(Oc4ccc(C5=NN(C(N)=S)C(c6ccc([N+](=O)[O-])cc6)C5)cc4)n3)cc2)CC1c1ccc([N+](=O)[O-])cc1 (stereo not drawn),inhibition zone (IZ),Bacillus subtilis,10 mm
CCNCCC(=O)Nc1ccc(-c2cn(Cc3cc(Cn4cc(-c5ccc(NC(=O)CCNCC)cc5)nn4)cc(Cn4cc(-c5ccc(NC(=O)CCNCC)cc5)nn4)c3)nn2)cc1,ΔTm,dsDNA,0 °C
Clc1ccc(CNc2nc(NCc3ccc(Cl)cc3)nc(NCc3ccc(Cl)cc3)n2)cc1,EC50,Human alphaherpesvirus 1,11 µM
CCCCCNCCCC(=O)Nc1ccc(-c2cn(Cc3cc(Cn4cc(-c5ccc(NC(=O)CCCNCCCCC)cc5)nn4)cc(Cn4cc(-c5ccc(NC(=O)CCCNCCCCC)cc5)nn4)c3)nn2)cc1,ΔTm,Quadruplex DNA [1],5 °C
same,ΔTm,dsDNA,0 °C
same,ΔTm,Quadruplex DNA [2],2 °C
CCNCC(=O)Nc1ccc(-c2cn(Cc3cc(Cn4cc(-c5ccc(NC(=O)CNCC)cc5)nn4)cc(Cn4cc(-c5ccc(NC(=O)CNCC)cc5)nn4)c3)nn2)cc1,ΔTm,Quadruplex DNA [1],1 °C
same,ΔTm,dsDNA,0 °C
same,ΔTm,Quadruplex DNA [2],0 °C
c1ccc2c(c1)c1cc(-c3cc(-c4ccc5c(c4)c4ccccc4n5CCCN4CCOCC4)cc(-c4ccc5c(c4)c4ccccc4n5CCCN4CCOCC4)c3)ccc1n2CCCN1CCOCC1,Activity,Quadruplex DNA [3],inactive
same,Activity,Quadruplex DNA [4],inactive
same,Activity,Quadruplex DNA [2],inactive
COc1ccc(CNc2nc(NCc3ccc(OC)c(OC)c3OC)nc(NCc3ccc(OC)c(OC)c3OC)n2)c(OC)c1OC,EC50,Human alphaherpesvirus 1,28 µM
CCCCCCNCC(=O)Nc1ccc(-c2cn(Cc3cc(Cn4cc(-c5ccc(NC(=O)CNCCCCCC)cc5)nn4)cc(Cn4cc(-c5ccc(NC(=O)CNCCCCCC)cc5)nn4)c3)nn2)cc1,ΔTm,Quadruplex DNA [1],2 °C
same,ΔTm,dsDNA,0 °C
same,ΔTm,Quadruplex DNA [2],2 °C
c1ccc2c(c1)c1cc(-c3cc(-c4ccc5c(c4)c4ccccc4n5CCN4CCCC4)cc(-c4ccc5c(c4)c4ccccc4n5CCN4CCCC4)c3)ccc1n2CCN1CCCC1,ΔTm,Quadruplex DNA [3],10 °C
same,ΔTm,Quadruplex DNA [4],13 °C
same,ΔTm,Quadruplex DNA [2],1.9 °C
NC(=S)N1N=C(c2ccc(Oc3nc(Oc4ccc(C5=NN(C(N)=S)C(c6ccccc6)C5)cc4)nc(Oc4ccc(C5=NN(C(N)=S)C(c6ccccc6)C5)cc4)n3)cc2)CC1c1ccccc1 (stereo not drawn),inhibition zone (IZ),Micrococcus luteus,15 mm
same,inhibition zone (IZ),Bacillus subtilis,11 mm
same,inhibition zone (IZ),Staphylococcus aureus,13 mm
Cc1ccc(/C=C/C(=O)c2ccc(Oc3nc(Oc4ccc(C(=O)/C=C/c5ccc(C)cc5)cc4)nc(Oc4ccc(C(=O)/C=C/c5ccc(C)cc5)cc4)n3)cc2)cc1,inhibition zone (IZ),Micrococcus luteus,11 mm
same,inhibition zone (IZ),Bacillus subtilis,10 mm
same,inhibition zone (IZ),Staphylococcus aureus,7 mm
FC(F)(F)c1ccc(CNc2nc(NCc3ccc(C(F)(F)F)cc3)nc(NCc3ccc(C(F)(F)F)cc3)n2)cc1,EC50,Human alphaherpesvirus 1,7.4 µM
NC(=S)N1N=C(c2ccc(Oc3nc(Oc4ccc(C5=NN(C(N)=S)C(c6cccc([N+](=O)[O-])c6)C5)cc4)nc(Oc4ccc(C5=NN(C(N)=S)C(c6cccc([N+](=O)[O-])c6)C5)cc4)n3)cc2)CC1c1cccc([N+](=O)[O-])c1 (stereo not drawn),inhibition zone (IZ),Micrococcus luteus,16 mm
same,inhibition zone (IZ),Bacillus subtilis,13 mm
same,inhibition zone (IZ),Staphylococcus aureus,10 mm
CC(C)Nc1nc(NC(C)C)nc(NC(C)C)n1,EC50,Human alphaherpesvirus 1,27.3 µM
COc1ccc(CNc2nc(NCc3ccc(OC)cc3)nc(NCc3ccc(OC)cc3)n2)cc1,EC50,Human alphaherpesvirus 1,> 100 µM
CCCOCCNCCCC(=O)Nc1ccc(-c2cn(Cc3cc(Cn4cc(-c5ccc(NC(=O)CCCNCCOCCC)cc5)nn4)cc(Cn4cc(-c5ccc(NC(=O)CCCNCCOCCC)cc5)nn4)c3)nn2)cc1,ΔTm,Quadruplex DNA [1],0 °C
same,ΔTm,dsDNA,0 °C
same,ΔTm,Quadruplex DNA [2],0 °C
CC(C)COc1nc(N)nc(OCC(C)C)n1,EC50,Human alphaherpesvirus 1,> 100 µM
CNCC(=O)Nc1ccc(-c2cn(Cc3cc(Cn4cc(-c5ccc(NC(=O)CNC)cc5)nn4)cc(Cn4cc(-c5ccc(NC(=O)CNC)cc5)nn4)c3)nn2)cc1,ΔTm,Quadruplex DNA [1],1 °C
same,ΔTm,dsDNA,0 °C
same,ΔTm,Quadruplex DNA [2],1 °C
COc1ccc(CNc2nc(NCc3ccc(OC)cc3OC)nc(NCc3ccc(OC)cc3OC)n2)c(OC)c1,EC50,Human alphaherpesvirus 1,> 100 µM
